The source of these data is US4885307A, “Derivatives of 1-arylsulphonyl-1,5-dihydro-2H-pyrrol-2-one, and compositions containing them” (Roussel Uclaf, priority 1987, dated 1989).

The subject of this assay is male mice (Charles Rivers CD1). The experiment in a line: Learning and memorizing: anti-amnesiac effect on electric shock-induced retrograde amnesia (two-compartment luminous/dark box avoidance). The format is in vivo. Conditions: for Percentage increase in latency time in comparison with the controls: 3 hours after treatment, * = statistically different in comparison with controls; for anti-amnesic activity: at doses between 50 and 200 mg/kg, oral route. The source says:
There were used male mice (Charles Rivers CD1) weighing 25-30 g. The animals were placed in the luminous part of a box with two compartments communicating by an opening [F. Barzaghi and G. Galliani, Brit. J. Pharmacol. 86, p.
At the instant when the mouse passes from the luminous compartment to the dark compartment, the opening closes and it is immediately punished by an electric discharge to the paws. The animal submitted to this procedure learns to memorize the punishment. In fact, if it is put back in the luminous compartment, it will thus avoid crossing the opening and reentering the dark compartment.
In order to induce a retrograde amnesia, the animals are submitted immediately after learning to an electric shock. After the electric shock, the products are administered by oral route at different doses.
There were used from 10 to 50 animals per dose.
The anti-amnesiac effect of the products is evaluated 3 hours after the treatment, using the same procedure as that utilized for the acquisition.
The time taken by the animal to return to the dark chamber (time limit 180 seconds) is used as evaluation parameter.
The active products are those which cause a significant increase in the latency time with a bell-shaped dose-response curve.
The results are expressed as percentages of the increase of the latency time in comparison with the corresponding controls.

Each structure is given as a SMILES string.

Turning to `CCCCOC1C=CC(=O)N1S(=O)(=O)c1ccccc1` (stereo not drawn) [Example 4, 1-benzenesulphonyl-5-n-butoxy-1,5-dihydro-2H-pyrrol-2-one], the anti-amnesic activity entry is on record as “have shown an anti-amnesic activity”. In addition, where the note is “50 mg/kg per os”, the “Percentage increase in latency time in comparison with the controls” value (“Percentage increase in latency time” for short) is given as 54%. Also, the “Percentage increase in latency time” value (100 mg/kg per os) is recorded as 96%. Further, under “200 mg/kg per os”, the “Percentage increase in latency time” value was 79%.

As for `CCCCCOC1C=CC(=O)N1S(=O)(=O)c1ccccc1` (stereo not drawn) [Example 6, 1-benzenesulphonyl-1,5-dihydro-5-n-pentyloxy-2H-pyrrol-2-one], the anti-amnesic activity entry is given as “have shown an anti-amnesic activity”. Besides, the “Percentage increase in latency time” value (50 mg/kg per os) turned out to be 73%. For the same compound, the “Percentage increase in latency time” value (100 mg/kg per os) stood at 92%. Also, the “Percentage increase in latency time” value (200 mg/kg per os) was 76%.

As to `CCCCOC1C=CC(=O)N1S(=O)(=O)c1cccc(C(F)(F)F)c1` (stereo not drawn) [Example 12, 1-(3-trifluoromethyl-benzenesulphonyl)-5-n-butyloxy-1,5-dihydro-2H-pyrrol-2-one], the anti-amnesic activity entry is given as “have shown an anti-amnesic activity”. Where the note is “50 mg/kg per os”, the “Percentage increase in latency time” value came to 20%. The “Percentage increase in latency time” value (100 mg/kg per os) is 75%. Also, the “Percentage increase in latency time” value (200 mg/kg per os) is 92%.

For the compound `NC(=O)CN1CCCC1=O` [PIRACETAM, reference compound], the “Percentage increase in latency time” value (50 mg/kg per os) is 10%, the “Percentage increase in latency time” value (100 mg/kg per os) is recorded as 48% and the “Percentage increase in latency time” value (200 mg/kg per os) is listed as 20%.
